Legend:
Experiment in all cases: zone of inhibition in vitro test
Type in all cases: cell-based
[1] = system: Lactobacillus casei ATCC 393
[2] = system: Salmonella enterica ATCC 14028
[3] = system: Escherichia coli ATCC 8739
[4] = system: Klebsiella pneumoniae ATCC 4352
[5] = system: Staphyloccus epidermidis ATCC 12228
MRSE ATCC 51625 = system: MRSE ATCC 51625
Candida auris CDC B11903 = system: Candida auris CDC B11903
[6] = system: Candida albicans ATCC 10231
[7] = system: Escerichia coli ATCC 43895
[8] = system: Propionibacterium acnes ATCC 6919
Escherichia coli 0157:H7 = system: Escherichia coli 0157:H7
[9] = system: Clostridium perfrinqens ATCC 13124
[10] = system: Methicillin Resistant Staphylococcus aureus ATCC 33591
[11] = system: Pseudomonas aeruqinosa ATCC 9-27
[12] = system: Staphylococcus aureus ATCC 6538
[13] = Candida auris CDC 811903, Table 2

## CCOC(=O)c1ccc(O)c(O)c1 [Ethyl ester of protocatechuic acid, 3,4-Dihydroxybenzoic acid ethyl ester]
[1]
  Average (mm): 23 mm
  RESULTS (mm) Plate 1: 24 mm
  RESULTS (mm) Plate 2: 22 mm
[2]
  Average (mm): 28 mm
  RESULTS (mm) Plate 1: 28 mm
  RESULTS (mm) Plate 2: 28 mm
[3]
  Average (mm): 23 mm
  RESULTS (mm) Plate 1: 22 mm
  RESULTS (mm) Plate 2: 24 mm
[4]
  Average (mm): 27 mm
  RESULTS (mm) Plate 1: 28 mm
  RESULTS (mm) Plate 2: 26 mm
[5]
  Average (mm): 35 mm
  RESULTS (mm) Plate 1: 35 mm
  RESULTS (mm) Plate 2: 35 mm
MRSE ATCC 51625
  Average (mm): 23 mm
  RESULTS (mm) Plate 1: 23 mm
  RESULTS (mm) Plate 2: 22 mm
Candida auris CDC B11903; [13]
  Average (mm): 29.5 mm
  RESULTS (mm) Plate 2: 28 mm
  RESULTS (mm) Plate I: 31 mm
Candida auris CDC B11903; conclusion in words from the in vitro test results
  topical disinfection for Candida auris: excellent agent for topical disinfection
[6]
  Average (mm): 29.5 mm
  RESULTS (mm) Plate 1: 31 mm
  RESULTS (mm) Plate 2: 28 mm
[7]
  Average (mm): 27 mm
  RESULTS (mm) Plate 1: 25 mm
  RESULTS (mm) Plate 2: 28 mm
[8]
  Average (mm): 20 mm
  RESULTS (mm) Plate 1: 22 mm
  RESULTS (mm) Plate 2: 18 mm
Escherichia coli 0157:H7
  Average (mm): 27 mm
  RESULTS (mm) Plate 1: 26 mm
  RESULTS (mm) Plate 2: 28 mm
[9]
  Average (mm): 52 mm
  RESULTS (mm) Plate 1: 50 mm
  RESULTS (mm) Plate 2: 54 mm
[10]
  Average (mm): 26.5 mm
  RESULTS (mm) Plate 1: 28 mm
  RESULTS (mm) Plate 2: 25 mm
[11]
  Average (mm): 11 mm
  RESULTS (mm) Plate 1: 11 mm
  RESULTS (mm) Plate 2: 11 mm
[12]
  Average (mm): 27 mm
  RESULTS (mm) Plate 1: 26 mm
  RESULTS (mm) Plate 2: 28 mm

## O=C(O)c1ccc(O)c(O)c1 [Protocatechuic acid, reference compound]
[1]
  Average (mm): 21 mm
  RESULTS (mm) Plate 1: 18 mm
  RESULTS (mm) Plate 2: 24 mm
[2]
  Average (mm): 14 mm
  RESULTS (mm) Plate 1: 15 mm
  RESULTS (mm) Plate 2: 13 mm
[3]
  Average (mm): 14 mm
  RESULTS (mm) Plate 1: 14 mm
  RESULTS (mm) Plate 2: 14 mm
[4]
  Average (mm): 14.5 mm
  RESULTS (mm) Plate 1: 16 mm
  RESULTS (mm) Plate 2: 13 mm
[5]
  Average (mm): 27 mm
  RESULTS (mm) Plate 1: 26 mm
  RESULTS (mm) Plate 2: 28 mm
MRSE ATCC 51625
  Average (mm): 18 mm
  RESULTS (mm) Plate 1: 15 mm
  RESULTS (mm) Plate 2: 20 mm
Candida auris CDC B11903; conclusion in words
  resistance of Candida auris to the chemical: very resistant
[6]
  Average (mm): 18 mm
  RESULTS (mm) Plate 1: 21 mm
  RESULTS (mm) Plate 2: 15 mm
[7]
  Average (mm): 13 mm
  RESULTS (mm) Plate 1: 14 mm
  RESULTS (mm) Plate 2: 12 mm
[8]
  Average (mm): 21 mm
  RESULTS (mm) Plate 1: 23 mm
  RESULTS (mm) Plate 2: 19 mm
Escherichia coli 0157:H7
  Average (mm): 15.5 mm
  RESULTS (mm) Plate 1: 17 mm
  RESULTS (mm) Plate 2: 14 mm
[9]
  Average (mm): 52 mm
  RESULTS (mm) Plate 1: 54 mm
  RESULTS (mm) Plate 2: 50 mm
[10]
  Average (mm): 21 mm
  RESULTS (mm) Plate 1: 21 mm
  RESULTS (mm) Plate 2: 21 mm
[11]
  Average (mm): 13 mm
  RESULTS (mm) Plate 1: 13 mm
  RESULTS (mm) Plate 2: 13 mm
[12]
  Average (mm): 18 mm
  RESULTS (mm) Plate 1: 18 mm
  RESULTS (mm) Plate 2: 18 mm
